Measurements as given in patent US9914730B2, “Azaquinazoline inhibitors of Atypical protein Kinase C” (Ignyta, Inc., priority 2012, dated 2018).

target: T1, full-length human PKCι (Homo sapiens, UniProt P41743); assay: PKCι IC50 IMAP assay, full-length PKCι at 150 μM ATP; type: biochemical; conditions: read-out: IC50 in IMAP assay against full length PKCi at 150 μM ATP
T1 construct: Recombinant, full-length human PKCι expressed in Sf21 insect cells is also commercially available; purchased; host or cells: Sf21 insect cells
T1 sequence (P41743 1-596): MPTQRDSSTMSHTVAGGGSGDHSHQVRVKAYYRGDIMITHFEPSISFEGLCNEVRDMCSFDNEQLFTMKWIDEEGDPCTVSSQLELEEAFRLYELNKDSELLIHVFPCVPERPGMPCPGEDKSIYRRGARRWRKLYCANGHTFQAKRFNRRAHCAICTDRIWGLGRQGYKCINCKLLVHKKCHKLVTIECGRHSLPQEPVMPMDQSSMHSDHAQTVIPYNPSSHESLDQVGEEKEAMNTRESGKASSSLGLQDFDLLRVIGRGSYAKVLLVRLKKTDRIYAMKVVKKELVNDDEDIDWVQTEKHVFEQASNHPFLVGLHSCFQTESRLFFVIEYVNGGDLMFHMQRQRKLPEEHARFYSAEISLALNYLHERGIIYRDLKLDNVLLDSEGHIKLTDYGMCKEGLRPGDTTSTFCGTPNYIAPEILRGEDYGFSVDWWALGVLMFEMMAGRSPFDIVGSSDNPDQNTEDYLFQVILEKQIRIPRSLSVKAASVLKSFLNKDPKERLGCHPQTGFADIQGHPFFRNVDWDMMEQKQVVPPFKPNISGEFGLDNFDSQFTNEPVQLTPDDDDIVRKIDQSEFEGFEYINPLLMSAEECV
Summary of the method: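 Dose-response IC50 values come from IMAP fluorescence polarisation after 60 min room-temperature turnover of 100 nM FAM peptide by ~15 pM insect-cell-expressed full-length PKCι at 150 μM ATP (5× KM^APP), normalised to no-compound and no-enzyme controls.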

Compared with COC[C@H]1CN(c2nc(N3CCOCC3)nc3cncc(OC)c23)CCN1 [Example 1009, 5-Methoxy-4-((R)-3-methoxymethyl-piperazin-1-yl)-2-morpholin-4-yl-pyrido[3,4-d]pyrimidine], COc1cncc2nc(N3CCOCC3)nc(N3CCN[C@@H](COc4ccc(F)cc4)C3)c12 [Example 1010, 4-[(R)-3-(4-Fluoro-phenoxymethyl)-piperazin-1-yl]-5-methoxy-2-morpholin-4-yl-pyrido[3,4-d]pyrimidine] is lower in IC50: 1000 to 10000 nM for the first, 100 to 1000 nM for the second.

c1cc2c(N[C@@H]3CCNC3)nc(N3CCOCC3)nc2cn1 [Example 1011, (2-Morpholin-4-yl-pyrido[3,4-d]pyrimidin-4-yl)-(R)-pyrrolidin-3-yl-amine] and c1cc(-c2nccc3c(N[C@@H]4CCNC4)nc(N4CCOCC4)nc23)[nH]n1 [Example 1012, [2-Morpholin-4-yl-8-(2H-pyrazol-3-yl)-pyrido[3,4-d]pyrimidin-4-yl]-(R)-pyrrolidin-3-yl-amine] fall in the same range of IC50: 1000 to 10000 nM for the first, 1000 to 10000 nM for the second.

Nc1nccc2c(NC[C@@H](N)Cc3ccccc3)nc(N3CCOCC3)nc12 [Example 1013, N^4-((S)-2-Amino-3-phenyl-propyl)-2-morpholin-4-yl-pyrido[3,4-d]pyrimidine-4,8-diamine] and N[C@H](CNc1nc(N2CCOCC2)nc2cnccc12)Cc1ccccc1 [Example 1014, (S)—N^1-(2-Morpholin-4-yl-pyrido[3,4-d]pyrimidin-4-yl)-3-phenyl-propane-1,2-diamine] fall in the same range of IC50: 100 to 1000 nM for the first, 100 to 1000 nM for the second.

First: Brc1cncc2nc(N3CCOCC3)nc(N3CCNCC3)c12 [Example 1015, 5-Bromo-2-morpholin-4-yl-4-piperazin-1-yl-pyrido[3,4-d]pyrimidine]
Second: c1ncc2nc(N3CCOCC3)nc(N3CCNCC3)c2c1C1CC1 [Example 1016, 5-Cyclopropyl-2-morpholin-4-yl-4-piperazin-1-yl-pyrido[3,4-d]pyrimidine]
The IC50 of the first is higher: 100 to 1000 nM for the first, less than 100 nM for the second. The second is the more potent here.

c1ccc(C[C@H]2CN(c3nc(N4CCOCC4)nc4cncc(C5CC5)c34)CCN2)cc1 [Example 1017, 4-((S)-3-Benzyl-piperazin-1-yl)-5-cyclopropyl-2-morpholin-4-yl-pyrido[3,4-d]pyrimidine] and N#CC[C@H]1CN(c2nc(N3CCOCC3)nc3cncc(C4CC4)c23)CCN1 [Example 1018, [(S)-4-(5-Cyclopropyl-2-morpholin-4-yl-pyrido[3,4-d]pyrimidin-4-yl)-piperazin-2-yl]-acetonitrile] cannot be ordered by IC50: less than 100 nM for the first, less than 100 nM for the second.

COc1cncc2nc(-c3ccnc4[nH]ccc34)nc(N3CCNCC3)c12 [Example 1200, 5-Methoxy-4-piperazin-1-yl-2-(1H-pyrrolo[2,3-b]pyridin-4-yl)-pyrido[3,4-d]pyrimidine] and CC(C)c1cncc2nc(-c3ccnc4[nH]ccc34)nc(N3CCNCC3)c12 [Example 1211, 5-Isopropyl-4-piperazin-1-yl-2-(1H-pyrrolo[2,3-b]pyridin-4-yl)-pyrido[3,4-d]pyrimidine] cannot be ordered by IC50: less than 100 nM for the first, less than 100 nM for the second.

First: COc1cncc2nc(-c3ccnc4[nH]c(C)cc34)nc(N3CCNCC3)c12 [Example 1201, 5-Methoxy-2-(2-methyl-1H-pyrrolo[2,3-b]pyridin-4-yl)-4-piperazin-1-yl-pyrido[3,4-d]pyrimidine]
Second: CCc1cc2c(-c3nc(N4CCNCC4)c4c(OC)cncc4n3)ccnc2[nH]1 [Example 1204, 2-(2-Ethyl-1H-pyrrolo[2,3-b]pyridin-4-yl)-5methoxy-4-piperazin-1-yl-pyrido[3,4-d]pyrimidine]
The IC50 of the first is lower: less than 100 nM for the first, 100 to 1000 nM for the second. The first is the more potent here.

COc1cncc2nc(-c3ccnc4[nH]c(Cc5ccccc5)cc34)nc(N3CCNCC3)c12 [Example 1202, 2-(2-Benzyl-1H-pyrrolo[2,3-b]pyridin-4-yl)-5-methoxy-4-piperazin-1-yl-pyrido[3,4-d]pyrimidine] and COc1cncc2nc(-c3ccnc4[nH]c(Cc5ccccc5F)cc34)nc(N3CCNCC3)c12 [Example 1203, 2-[2-(2-Fluoro-benzyl)-1H-pyrrolo[2,3-b]pyridin-4-yl]-5-methoxy-4-piperazin-1-yl-pyrido[3,4-d]pyrimidine] cannot be ordered by IC50: less than 100 nM for the first, less than 100 nM for the second.

First: COC[C@H]1CN(c2nc(-c3ccnc4[nH]ccc34)nc3cncc(OC)c23)CCN1 [Example 1205, 5-Methoxy-4-((R)-3-methoxymethyl-piperazin-1-yl)-2-(1H-pyrrolo[2,3-b]pyridin-4-yl)-pyrido[3,4-d]pyrimidine]
Second: COc1cncc2nc(-c3ccnc4[nH]ccc34)nc(N3CCN[C@@H](CO)C3)c12 [Example 1206, {(R)-4-[5-Methoxy-2-(1H-pyrrolo[2,3-b]pyridin-4-yl)-pyrido[3,4-d]pyrimidin-4-yl]-piperazin-2-yl}-methanol]
The IC50 of the first is higher: 100 to 1000 nM for the first, less than 100 nM for the second. The second is the more potent here.

Compared with c1cc2c(N3CCNCC3)nc(-c3ccnc4[nH]ccc34)nc2cn1 [Example 1207, 4-Piperazin-1-yl-2-(1H-pyrrolo[2,3-b]pyridin-4-yl)-pyrido[3,4-d]pyrimidine], c1cc(-c2nc(N3CCNCC3)c3c(C4CC4)cncc3n2)c2cc[nH]c2n1 [Example 1209, 5-Cyclopropyl-4-piperazin-1-yl-2-(1H-pyrrolo[2,3-b]pyridin-4-yl)-pyrido[3,4-d]pyrimidine] is lower in IC50: 100 to 1000 nM for the first, less than 100 nM for the second.

First: c1cc2c(N[C@@H]3CCNC3)nc(-c3ccnc4[nH]ccc34)nc2cn1 [Example 1208, (R)-Pyrrolidin-3-yl-[2-(1H-pyrrolo[2,3-b]pyridin-4-yl)-pyrido[3,4-d]pyrimidin-4-yl]-amine]
Second: c1cc(-c2nc(N3CCN[C@@H](C4CC4)C3)c3c(C4CC4)cncc3n2)c2cc[nH]c2n1 [Example 1220, 5-Cyclopropyl-4-((S)-3-cyclopropyl-piperazin-1-yl)-2-(1H-pyrrolo[2,3-b]pyridin-4-yl)-pyrido[3,4-d]pyrimidine]
The IC50 of the first is higher: 100 to 1000 nM for the first, less than 100 nM for the second. The second is the more potent here.

Clc1ncc(C2CC2)c2c(N3CCNCC3)nc(-c3ccnc4[nH]ccc34)nc12 [Example 1210, 8-Chloro-5-cyclopropyl-4-piperazin-1-yl-2-(1H-pyrrolo[2,3-b]pyridin-4-yl)-pyrido[3,4-d]pyrimidine] and Cc1cc2c(-c3nc(N4CCNCC4)c4c(C5CC5)cncc4n3)ccnc2[nH]1 [Example 1217, 5-Cyclopropyl-2-(2-methyl-1H-pyrrolo[2,3-b]pyridin-4-yl)-4-piperazin-1-yl-pyrido[3,4-d]pyrimidine] cannot be ordered by IC50: less than 100 nM for the first, less than 100 nM for the second.

FC(F)(F)c1cc2c(-c3nc(N4CCNCC4)c4c(C5CC5)cncc4n3)ccnc2[nH]1 [Example 1212] and c1csc(-c2cc3c(-c4nc(N5CCNCC5)c5c(C6CC6)cncc5n4)ccnc3[nH]2)c1 [Example 1222, 5-Cyclopropyl-4-piperazin-1-yl-2-(2-thiophen-2-yl-1H-pyrrolo[2,3-b]pyridin-4-yl)-pyrido[3,4-d]pyrimidine] cannot be ordered by IC50: less than 100 nM for the first, less than 100 nM for the second.

FC(F)(F)[C@H]1CN(c2nc(-c3ccnc4[nH]ccc34)nc3cncc(C4CC4)c23)CCN1 [Example 1213, 5-Cyclopropyl-2-(1H-pyrrolo[2,3-b]pyridin-4-yl)-4-((R)-3-trifluoromethyl-piperazin-1-yl)-pyrido[3,4-d]pyrimidine] and FC(F)(F)[C@@H]1CN(c2nc(-c3ccnc4[nH]ccc34)nc3cncc(C4CC4)c23)CCN1 [Example 1214, 5-Cyclopropyl-2-(1H-pyrrolo[2,3-b]pyridin-4-yl)-4-((S)-3-trifluoromethyl-piperazin-1-yl)-pyrido[3,4-d]pyrimidine] cannot be ordered by IC50: less than 100 nM for the first, less than 100 nM for the second.

Cc1cc2c(-c3nc(N4CCNC(C(F)(F)F)C4)c4c(C5CC5)cncc4n3)ccnc2[nH]1 (stereo not drawn) [Example 1215, 5-Cyclopropyl-2-(2-methyl-1H-pyrrolo[2,3-b]pyridin-4-yl)-4-(3-trifluoromethyl-piperazin-1-yl)-pyrido[3,4-d]pyrimidine] and FC(F)(F)C1CN(c2nc(-c3ccnc4[nH]ccc34)nc3cncc(C4CC4)c23)CCN1 (stereo not drawn) [Example 1218, 5-Cyclopropyl-2-(1H-pyrrolo[2,3-b]pyridin-4-yl)-4-(3-trifluoromethyl-piperazin-1-yl)-pyrido[3,4-d]pyrimidine] cannot be ordered by IC50: less than 100 nM for the first, less than 100 nM for the second.

Cc1cc2c(-c3nc(N4CCN[C@@H](C5CC5)C4)c4c(C5CC5)cncc4n3)ccnc2[nH]1 [Example 1216, 5-Cyclopropyl-4-((S)-3-cyclopropyl-piperazin-1-yl)-2-(2-methyl-1H-pyrrolo[2,3-b]pyridin-4-yl)-pyrido[3,4-d]pyrimidine] and N#CC[C@H]1CN(c2nc(-c3ccnc4[nH]ccc34)nc3cncc(C4CC4)c23)CCN1 [Example 1221, {(S)-4-[5-Cyclopropyl-2-(1H-pyrrolo[2,3-b]pyridin-4-yl)-pyrido[3,4-d]pyrimidin-4-yl]-piperazin-2-yl}-acetonitrile] cannot be ordered by IC50: less than 100 nM for the first, less than 100 nM for the second.

c1ccc(C[C@H]2CN(c3nc(-c4ccnc5[nH]ccc45)nc4cncc(C5CC5)c34)CCN2)cc1 [Example 1219, 4-((S)-3-Benzyl-piperazin-1-yl)-5-cyclopropyl-2-(1H-pyrrolo[2,3-b]pyridin-4-yl)-pyrido[3,4-d]pyrimidine] gave an IC50 of less than 100 nM.
